We go through three compounds from ChEMBL document CHEMBL4406832, “Discovery of novel series of 2-substituted benzo[d]oxazol-5-amine derivatives as multi-target directed ligands for the treatment of Alzheimer's disease” (Eur J Med Chem, 2019).

What is called Ki is the equilibrium dissociation constant of an inhibitor or competing ligand from its target. A high value points to lower affinity. As a reminder, the IC50 is the concentration that inhibits the measured activity by half. High values mean weaker potency in that assay, low ones greater potency in that assay. The term Papp denotes a coefficient for how fast a substance crosses the barrier. Low values mean poor permeation, high ones ready permeation.

Data set [1] has as its system SH-SY5Y. Description: Neuroprotective activity against amyloid beta (1 to 42)-induced cytotoxicity in human SH-SY5Y cells assessed as increase in cell viability at 10 to 20 uM measured after 72 hrs by MTT assay. The format is functional, cell-based. On the technique in general: Formazan colour is commonly taken as a measure of viable cells.
Data set [2] concerns Rattus norvegicus. Description: Cognitive enhancing effect in scopolamine-induced Wistar rat model of amnesia assessed as increase in spontaneous alteration at 5 mg/kg pretreated for 7 days followed by scopolamine challenge and measured after 30 mins by Y-maze test. The class given is functional, organism-based.
In data set [3] the test system is Rattus norvegicus. Put plainly: Improvement in learning and spatial memory in icv infused amyloid beta (1 to 42)-induced Wistar rat model of Alzheimer's disease assessed as reduction in escape latency at 5 mg/kg, po administered daily for 7 days starting from 7 days post surgery and measured daily for 5 days by Morris water maze test. The class given is functional, organism-based.

Data set [4] has as its system Rattus norvegicus. Description: Improvement in learning and spatial memory in icv infused amyloid beta (1 to 42)-induced Wistar rat model of Alzheimer's disease assessed as increase in number of platform crossing at 5 mg/kg, po administered daily for 7 days starting from 7 days post surgery and measured after 6 days by Morris water maze test. The format is functional, organism-based.

Data set [5] has as its system Rattus norvegicus. Description: Improvement in learning and spatial memory in icv infused amyloid beta (1 to 42)-induced Wistar rat model of Alzheimer's disease assessed as increase in time spent in platform zone at 5 mg/kg, po administered daily for 7 days starting from 7 days post surgery and measured after 6 days by Morris water maze test. The format is functional, organism-based.

Data set [6] concerns Rattus norvegicus. Description: Improvement in learning and spatial memory in icv infused amyloid beta (1 to 42)-induced Wistar rat model of Alzheimer's disease assessed as reduction in degeneration of neuron in hippocampal region at 5 mg/kg, po administered daily for 7 days starting from 7 days post surgery and measured after 6 days by H and E staining-based microscopic analysis. The format is functional, organism-based.

Data set [7] concerns Rattus norvegicus. Put plainly: Improvement in learning and spatial memory in icv infused amyloid beta (1 to 42)-induced Wistar rat model of Alzheimer's disease assessed as reduction in disordered neuron in hippocampal region at 5 mg/kg, po administered daily for 7 days starting from 7 days post surgery and measured after 6 days by H and E staining-based microscopic analysis. The class given is functional, organism-based.

The target of data set [8] is T1, Amyloid-beta precursor protein (Homo sapiens, UniProt P05067). Description: Displacement of [125I]IMPY from human amyloid beta(1-42) aggregates incubated for 3 hrs by gamma counting analysis. Background: In a radioligand displacement assay an active substance lowers the binding of a labelled ligand.
T1 sequence (P05067 whole entry): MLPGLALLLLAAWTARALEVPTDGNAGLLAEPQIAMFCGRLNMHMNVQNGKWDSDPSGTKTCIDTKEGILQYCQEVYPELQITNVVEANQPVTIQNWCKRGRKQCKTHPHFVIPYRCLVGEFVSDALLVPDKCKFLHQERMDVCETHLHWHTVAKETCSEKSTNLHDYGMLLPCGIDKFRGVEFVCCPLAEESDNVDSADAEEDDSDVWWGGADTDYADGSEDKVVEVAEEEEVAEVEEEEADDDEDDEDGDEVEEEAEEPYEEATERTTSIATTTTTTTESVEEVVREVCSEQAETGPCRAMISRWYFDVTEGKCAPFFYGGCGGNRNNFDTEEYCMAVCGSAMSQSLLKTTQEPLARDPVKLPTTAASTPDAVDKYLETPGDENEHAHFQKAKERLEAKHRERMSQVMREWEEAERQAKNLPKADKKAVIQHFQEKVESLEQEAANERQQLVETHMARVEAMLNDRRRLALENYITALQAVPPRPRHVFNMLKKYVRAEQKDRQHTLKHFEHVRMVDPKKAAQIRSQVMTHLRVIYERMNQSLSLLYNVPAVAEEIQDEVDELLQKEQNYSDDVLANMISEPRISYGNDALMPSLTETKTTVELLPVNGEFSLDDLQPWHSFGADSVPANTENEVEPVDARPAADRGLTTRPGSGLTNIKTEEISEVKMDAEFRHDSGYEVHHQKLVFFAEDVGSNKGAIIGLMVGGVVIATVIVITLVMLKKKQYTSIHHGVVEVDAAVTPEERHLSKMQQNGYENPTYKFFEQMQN
The target in data set [9] is Acetylcholinesterase (Electrophorus electricus) (UniProt O42275). Description: Non-competitive inhibition of electric eel AChE assessed as decrease in Vmax at 25 to 75 nM using varying levels of acetylthiocholine iodide as substrate measured every 2 mins for 10 mins by reciprocal Lineweaver-Burk plot analysis.
Chain of Acetylcholinesterase (Electrophorus electricus) (O42275 24-633 limits assumed): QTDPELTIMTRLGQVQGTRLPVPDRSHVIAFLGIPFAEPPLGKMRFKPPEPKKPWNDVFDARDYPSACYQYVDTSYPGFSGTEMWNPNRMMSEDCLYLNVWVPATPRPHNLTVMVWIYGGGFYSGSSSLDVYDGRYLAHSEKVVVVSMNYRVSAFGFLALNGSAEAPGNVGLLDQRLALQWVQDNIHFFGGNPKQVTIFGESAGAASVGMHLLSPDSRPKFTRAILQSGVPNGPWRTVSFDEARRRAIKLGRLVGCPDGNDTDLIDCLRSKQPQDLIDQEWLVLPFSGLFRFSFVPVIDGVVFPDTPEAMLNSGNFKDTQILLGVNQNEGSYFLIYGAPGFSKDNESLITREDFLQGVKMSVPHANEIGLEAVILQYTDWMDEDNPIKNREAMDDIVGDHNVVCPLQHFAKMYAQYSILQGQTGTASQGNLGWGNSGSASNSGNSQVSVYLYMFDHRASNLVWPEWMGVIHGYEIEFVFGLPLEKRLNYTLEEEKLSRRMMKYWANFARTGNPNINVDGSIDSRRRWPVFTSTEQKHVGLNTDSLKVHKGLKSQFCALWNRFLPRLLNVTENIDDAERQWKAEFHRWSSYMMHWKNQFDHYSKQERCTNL
The target of data set [10] is T2, Acetylcholinesterase (Electrophorus electricus, UniProt O42275). Put plainly: Inhibition of electric eel AChE using acetylthiocholine iodide as substrate preincubated with enzyme for 30 mins followed by substrate addition and measured for 1 min by DTNB reagent-based spectrophotometric analysis.
T2 sequence (O42275 whole entry): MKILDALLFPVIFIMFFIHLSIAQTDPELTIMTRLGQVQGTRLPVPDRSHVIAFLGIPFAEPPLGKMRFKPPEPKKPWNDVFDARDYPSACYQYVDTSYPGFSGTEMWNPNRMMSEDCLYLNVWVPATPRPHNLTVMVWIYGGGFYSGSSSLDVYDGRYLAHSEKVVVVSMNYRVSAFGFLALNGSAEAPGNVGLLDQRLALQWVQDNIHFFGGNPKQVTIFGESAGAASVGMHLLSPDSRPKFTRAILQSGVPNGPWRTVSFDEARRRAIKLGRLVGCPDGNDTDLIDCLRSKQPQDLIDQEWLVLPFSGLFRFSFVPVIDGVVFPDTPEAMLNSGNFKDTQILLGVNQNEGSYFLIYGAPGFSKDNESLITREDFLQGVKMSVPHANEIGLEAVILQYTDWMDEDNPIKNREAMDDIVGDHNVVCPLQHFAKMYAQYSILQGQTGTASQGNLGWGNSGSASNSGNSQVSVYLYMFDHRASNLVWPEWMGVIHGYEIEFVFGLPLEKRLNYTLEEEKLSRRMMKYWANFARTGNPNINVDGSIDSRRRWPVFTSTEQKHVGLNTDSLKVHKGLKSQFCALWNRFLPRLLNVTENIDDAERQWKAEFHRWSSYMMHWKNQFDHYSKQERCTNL
Data set [11] has as its target T3, Cholinesterase (Equus caballus, UniProt P81908). Put plainly: Inhibition of equine serum BuChE using butyrylthiocholine iodide as substrate preincubated for 30 mins followed by substrate addition and measured for 1 min by DTNB reagent-based spectrophotometric analysis.
Data set [12] in a line: Selectivity index, ratio of IC50 for equine serum BuChE to IC50 for electric eel AChE.
The nature of data set [13]: Permeability of the compound in pH 7.4 PBS buffer incubated for 18 hrs by PAMPA-BBB assay. In general terms: In PAMPA a lipid-coated filter parts donor from acceptor wells.
The target in data set [14] is Acetylcholinesterase (Electrophorus electricus) (UniProt O42275). Put plainly: Non-competitive inhibition of electric eel AChE assessed as decrease in Km at 25 to 75 nM using varying levels of acetylthiocholine iodide as substrate measured every 2 mins for 10 mins by reciprocal Lineweaver-Burk plot analysis.
Data set [15] has as its target Cholinesterase (Equus caballus) (UniProt P81908). Put plainly: Non-competitive inhibition of equine serum BuChE assessed as decrease in Vmax at 0.5 to 1.5 uM using varying levels of butyrylthiocholine iodide as substrate measured every 2 mins for 10 mins by reciprocal Lineweaver-Burk plot analysis.
The target is the same in data set [16]. Put plainly: Non-competitive inhibition of equine serum BuChE assessed as decrease in Km at 0.5 to 1.5 uM using varying levels of butyrylthiocholine iodide as substrate measured every 2 mins for 10 mins by reciprocal Lineweaver-Burk plot analysis.
In data set [17] the target is T2, Acetylcholinesterase. Description: Non-competitive inhibition of electric eel AChE using varying levels of acetylthiocholine iodide as substrate measured at 2 mins interval for 10 mins by Dixon plot analysis.
For data set [18], the target named is T3, Cholinesterase. Description: Non-competitive inhibition of equine serum BuChE using varying levels of butyrylthiocholine iodide as substrate measured at 2 mins interval for 10 mins by Dixon plot analysis.
Data set [19] addresses T1, Amyloid-beta precursor protein. Description: Inhibition of human amyloid beta (1 to 42) self-induced aggregation at 5 to 20 uM after 48 hrs by Thioflavin T based fluorometric assay.
Data set [20] concerns the target Acetylcholinesterase (Electrophorus electricus) (UniProt O42275). Put plainly: Inhibition of electric eel AChE-induced amyloid beta (1 to 42) aggregation at 5 to 20 uM after 48 hrs by thioflavin T-based fluorometric assay.
In data set [21] the test system is SH-SY5Y. Put plainly: Neuroprotective activity against amyloid beta (1 to 42)-induced cytotoxicity in human SH-SY5Y cells assessed as increase in cell viability at 40 to 80 uM measured after 72 hrs by MTT assay. The format is functional, cell-based.
A short description of data set [22]: Acute toxicity in Wistar rat assessed as animal death measured for 72 hrs by OCED guideline method. To be noted: in vivo.
Data set [23] is described as follows: Toxicity in Wistar rat assessed as change in body weight at 300 mg/kg measured for 72 hrs. The format is organism-based. To be noted: in vivo.
For data set [24], the species on record is Rattus norvegicus. Description: Ex vivo inhibition of AChE in brain of scopolamine-induced Wistar rat model of amnesia pretreated for 7 days followed by scopolamine challenge and measured after 30 mins using acetylthiocholine iodide as substrate by Ellman's method. The format is functional, organism-based.
Data set [25] relates to Rattus norvegicus. Put plainly: Improvement in learning and spatial memory in icv infused amyloid beta (1 to 42)-induced Wistar rat model of Alzheimer's disease assessed as increase in number of platform crossing at 10 mg/kg, po administered daily for 7 days starting from 7 days post surgery and measured after 6 days by Morris water maze test. The class given is functional, organism-based.

Data set [26] relates to Rattus norvegicus. Put plainly: Improvement in learning and spatial memory in icv infused amyloid beta (1 to 42)-induced Wistar rat model of Alzheimer's disease assessed as reduction in escape latency at 10 mg/kg, po administered daily for 7 days starting from 7 days post surgery and measured daily for 5 days by Morris water maze test. The class given is functional, organism-based.

Data set [27] has as its system Rattus norvegicus. Description: Improvement in learning and spatial memory in icv infused amyloid beta (1 to 42)-induced Wistar rat model of Alzheimer's disease assessed as increase in time spent in platform zone at 10 mg/kg, po administered daily for 7 days starting from 7 days post surgery and measured after 6 days by Morris water maze test. The class given is functional, organism-based.

Data set [28] concerns Rattus norvegicus. Put plainly: Improvement in learning and spatial memory in icv infused amyloid beta (1 to 42)-induced Wistar rat model of Alzheimer's disease assessed as reduction in degeneration of neuron in hippocampal region at 10 mg/kg, po administered daily for 7 days starting from 7 days post surgery and measured after 6 days by H and E staining-based microscopic analysis. The class given is functional, organism-based.

Data set [29] deals with Rattus norvegicus. Put plainly: Improvement in learning and spatial memory in icv infused amyloid beta (1 to 42)-induced Wistar rat model of Alzheimer's disease assessed as reduction in disordered neuron in hippocampal region at 10 mg/kg, po administered daily for 7 days starting from 7 days post surgery and measured after 6 days by H and E staining-based microscopic analysis. The format is functional, organism-based.

The species named for data set [30] is Rattus norvegicus. Description: Cognitive enhancing effect in scopolamine-induced Wistar rat model of amnesia assessed as increase in spontaneous alteration pretreated for 7 days followed by scopolamine challenge and measured after 30 mins by Y-maze test. The format is functional, organism-based.

Molecules are shown by their SMILES. The source made the active and inactive calls. No cut-off for these calls is given here.

Chain of Cholinesterase (Equus caballus) (P81908 whole entry): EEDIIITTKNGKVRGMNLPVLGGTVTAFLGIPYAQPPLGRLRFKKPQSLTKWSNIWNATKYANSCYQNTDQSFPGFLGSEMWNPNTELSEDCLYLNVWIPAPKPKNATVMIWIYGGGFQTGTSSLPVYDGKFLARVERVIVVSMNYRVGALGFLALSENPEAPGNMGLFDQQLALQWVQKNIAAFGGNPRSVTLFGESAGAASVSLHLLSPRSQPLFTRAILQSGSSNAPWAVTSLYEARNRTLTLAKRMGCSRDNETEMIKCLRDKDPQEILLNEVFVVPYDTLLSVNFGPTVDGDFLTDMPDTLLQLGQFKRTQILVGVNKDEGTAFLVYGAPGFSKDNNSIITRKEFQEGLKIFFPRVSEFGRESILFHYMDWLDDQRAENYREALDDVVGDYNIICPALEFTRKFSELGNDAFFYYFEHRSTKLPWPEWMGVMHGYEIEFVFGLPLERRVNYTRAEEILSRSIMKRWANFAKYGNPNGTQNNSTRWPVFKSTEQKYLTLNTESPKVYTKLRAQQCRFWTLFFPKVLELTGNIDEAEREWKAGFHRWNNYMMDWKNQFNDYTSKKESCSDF
T3 sequence (P81908 whole entry): as above

On to `COc1cc2c(cc1OC)C(=O)C(CC1CCN(Cc3ccccc3)CC1)C2` (stereo unspecified), for which the result in the data set on SH-SY5Y [1], with Rattus norvegicus [2], in the data set on Rattus norvegicus [3], in the data set with Rattus norvegicus [4], in the data set with Rattus norvegicus [5] and with Rattus norvegicus [6] was Active. Also, the outcome with Rattus norvegicus [7] was Active.
For the compound `CN(C)c1ccc(-c2nc3cc([125I])ccc3o2)cn1`, in data set [8], the Ki worked out at 6.9 nM.
On to `Nc1ccc2oc(N3CCN(C(=O)c4ccc(Br)cc4)CC3)nc2c1`, for which the inhibition entry in [9], in [14], in data set [15], in data set [16], in [19] and in data set [20] was “Active” in each case. The IC50 on Acetylcholinesterase [10] was determined as 52 nM; at Cholinesterase [11] it was 1080 nM. For the same compound, the Ratio IC50 in data set [12] turned out to be 20.8. Also, in [13], the Papp at 18 h turned out to be 10.8 ×10⁻⁶ cm/s. Besides, the Ki came to 30 nM at Acetylcholinesterase [17] and 860 nM at Cholinesterase [18]. Also, in the data set on SH-SY5Y [1], the outcome was inactive. The result with SH-SY5Y [21], in the data set with Rattus norvegicus [25], in the data set on Rattus norvegicus [26], in the data set with Rattus norvegicus [27], in the data set with Rattus norvegicus [28] and in the data set on Rattus norvegicus [29] was Active. For the same compound, the Activity result in [22] is “Toxic”; in [23], “Toxic”; in the data set filed under Rattus norvegicus [30], “Dose-dependent effect”. For the same compound, in the data set listed under Rattus norvegicus [24], the inhibition entry is “Dose-dependent effect”.
